Laboratory results from patent US9655870B2, “Homeopathic drug composition and methods of use thereof” (priority 2002, dated 2017).

Columns and labels:
[1] = Single-dose toxicity study; conditions: both sexes, mouse, in vivo, IV bolus, adult male and female CD-1 mice, read-out: maximally tolerated dose (MTD)
Experimental: Thus, the toxic doses levels of the compounds appear high (assuming a similar biochemical pathway and not correcting for a different surface-area-to-weight ratio), a dose of 9,975 mg (9.9 g) would not be lethal for a 75-kg person.

[2] = tested on: patients with at least moderate allergies; assay: Allergy study (Example 2); format: in vivo, human
From the text: Table 3. Table 3 is the clinical data from all patients who reported at least moderate allergies at the pre-study.

Q: Which MTD [1] does the source give for `O=C(CCNC(=O)OCc1ccccc1)NCCS(=O)(=O)O` [Taurox SB] here?
A: ~150 mg/kg

Q: What about the “average reduction in allergy symptom frequency” value ([2]; five of the eight patients, p=0.017) of the same molecule?
A: 82%

Q: And the “Allergy (lower numbers indicates less frequent allergies)” value ([2]; patient 102, week 0)?
A: 10

Q: What about the “Allergy (lower numbers indicates less frequent allergies)” value ([2]; patient 102, week 1) of the same molecule?
A: 10

Q: And the “Allergy (lower numbers indicates less frequent allergies)” value ([2]; patient 102, week 2)?
A: 10

Q: What about the “Allergy (lower numbers indicates less frequent allergies)” value ([2]; patient 102, week 3) of the same molecule?
A: 10

Q: What about the “Allergy (lower numbers indicates less frequent allergies)” value ([2]; patient 102, week 4) of the same molecule?
A: 10

Q: What about the “Allergy (lower numbers indicates less frequent allergies)” value ([2]; patient 102, week 6) of the same molecule?
A: 8.5

Q: And the “Allergy (lower numbers indicates less frequent allergies)” value ([2]; patient 102, week 7)?
A: 8.5

Q: What about the “Allergy (lower numbers indicates less frequent allergies)” value ([2]; patient 102, week 8) of the same molecule?
A: 8.5

Q: What about the “Allergy (lower numbers indicates less frequent allergies)” value ([2]; patient 102, week 9) of the same molecule?
A: 8.5

Q: And the “Allergy (lower numbers indicates less frequent allergies)” value ([2]; patient 102, week 10)?
A: 10

Q: What about the “Allergy (lower numbers indicates less frequent allergies)” value ([2]; patient 102, week 11) of the same molecule?
A: 10

Q: What about the “Allergy (lower numbers indicates less frequent allergies)” value ([2]; patient 103, week 0) of the same molecule?
A: 8

Q: And the “Allergy (lower numbers indicates less frequent allergies)” value ([2]; patient 103, week 1)?
A: 7

Q: And the “Allergy (lower numbers indicates less frequent allergies)” value ([2]; patient 103, week 2)?
A: 3

Q: What about the “Allergy (lower numbers indicates less frequent allergies)” value ([2]; patient 103, week 5) of the same molecule?
A: 3

Q: And the “Allergy (lower numbers indicates less frequent allergies)” value ([2]; patient 103, week 7)?
A: 3

Q: And the “Allergy (lower numbers indicates less frequent allergies)” value ([2]; patient 103, week 8)?
A: 3

Q: What about the “Allergy (lower numbers indicates less frequent allergies)” value ([2]; patient 103, week 9) of the same molecule?
A: 3

Q: And the “Allergy (lower numbers indicates less frequent allergies)” value ([2]; patient 201, week 0)?
A: 10

Q: What about the “Allergy (lower numbers indicates less frequent allergies)” value ([2]; patient 201, week 1) of the same molecule?
A: 5

Q: And the “Allergy (lower numbers indicates less frequent allergies)” value ([2]; patient 201, week 2)?
A: 1

Q: And the “Allergy (lower numbers indicates less frequent allergies)” value ([2]; patient 201, week 3)?
A: 0

Q: What about the “Allergy (lower numbers indicates less frequent allergies)” value ([2]; patient 201, week 4) of the same molecule?
A: 1

Q: And the allergy symptoms ([2]; patient 401, 8X dose for 3 months)?
A: less frequent and less severe

Q: And the “Allergy (lower numbers indicates less frequent allergies)” value ([2]; patient 401, week 0)?
A: 9

Q: What about the “Allergy (lower numbers indicates less frequent allergies)” value ([2]; patient 401, week 1) of the same molecule?
A: 9

Q: And the “Allergy (lower numbers indicates less frequent allergies)” value ([2]; patient 401, week 3)?
A: 3

Q: What about the “Allergy (lower numbers indicates less frequent allergies)” value ([2]; patient 401, week 5) of the same molecule?
A: 3

Q: What about the “Allergy (lower numbers indicates less frequent allergies)” value ([2]; patient 401, week 6) of the same molecule?
A: 2

Q: What about the “Allergy (lower numbers indicates less frequent allergies)” value ([2]; patient 401, week 7) of the same molecule?
A: 2

Q: What about the “Allergy (lower numbers indicates less frequent allergies)” value ([2]; patient 401, week 9) of the same molecule?
A: 3

Q: What about the “Allergy (lower numbers indicates less frequent allergies)” value ([2]; patient 401, week 10) of the same molecule?
A: 4

Q: And the “Allergy (lower numbers indicates less frequent allergies)” value ([2]; patient 401, week 11)?
A: 3

Q: What about the “Allergy (lower numbers indicates less frequent allergies)” value ([2]; patient 402, week 0) of the same molecule?
A: 6

Q: What about the “Allergy (lower numbers indicates less frequent allergies)” value ([2]; patient 402, week 1) of the same molecule?
A: 3

Q: What about the “Allergy (lower numbers indicates less frequent allergies)” value ([2]; patient 402, week 2) of the same molecule?
A: 2

Q: What about the “Allergy (lower numbers indicates less frequent allergies)” value ([2]; patient 402, week 3) of the same molecule?
A: 2

Q: What about the “Allergy (lower numbers indicates less frequent allergies)” value ([2]; patient 402, week 4) of the same molecule?
A: 3

Q: What about the “Allergy (lower numbers indicates less frequent allergies)” value ([2]; patient 701, week 0) of the same molecule?
A: 10

Q: And the “Allergy (lower numbers indicates less frequent allergies)” value ([2]; patient 701, week 2)?
A: 10

Q: What about the “Allergy (lower numbers indicates less frequent allergies)” value ([2]; patient 701, week 3) of the same molecule?
A: 10

Q: What about the “Allergy (lower numbers indicates less frequent allergies)” value ([2]; patient 701, week 4) of the same molecule?
A: 10

Q: And the “Allergy (lower numbers indicates less frequent allergies)” value ([2]; patient 701, week 5)?
A: 10

Q: And the “Allergy (lower numbers indicates less frequent allergies)” value ([2]; patient 701, week 6)?
A: 10

Q: And the “severe allergic response to known allergens” value ([2]; patient 702, 8X dose)?
A: marked reduction

Q: What about the “Allergy (lower numbers indicates less frequent allergies)” value ([2]; patient 702, week 0) of the same molecule?
A: 10

Q: And the “Allergy (lower numbers indicates less frequent allergies)” value ([2]; patient 702, week 1)?
A: 10

Q: And the “Allergy (lower numbers indicates less frequent allergies)” value ([2]; patient 702, week 2)?
A: 10

Q: And the “Allergy (lower numbers indicates less frequent allergies)” value ([2]; patient 702, week 3)?
A: 5

Q: What about the “Allergy (lower numbers indicates less frequent allergies)” value ([2]; patient 702, week 4) of the same molecule?
A: 6

Q: What about the “Allergy (lower numbers indicates less frequent allergies)” value ([2]; patient 702, week 5) of the same molecule?
A: 3

Q: And the “Allergy (lower numbers indicates less frequent allergies)” value ([2]; patient 703, week 0)?
A: 10

Q: What about the “Allergy (lower numbers indicates less frequent allergies)” value ([2]; patient 703, week 1) of the same molecule?
A: 10

Q: And the “Allergy (lower numbers indicates less frequent allergies)” value ([2]; patient 703, week 2)?
A: 10

Q: And the “Allergy (lower numbers indicates less frequent allergies)” value ([2]; patient 703, week 3)?
A: 10

Q: And the “Allergy (lower numbers indicates less frequent allergies)” value ([2]; patient 703, week 4)?
A: 10

Q: And the “Allergy (lower numbers indicates less frequent allergies)” value ([2]; patient 703, week 5)?
A: 10

Q: And the “Allergy (lower numbers indicates less frequent allergies)” value ([2]; patient 703, week 6)?
A: 10

Q: And the “Allergy (lower numbers indicates less frequent allergies)” value ([2]; patient 703, week 7)?
A: 10

Q: What about the “Allergy (lower numbers indicates less frequent allergies)” value ([2]; patient 703, week 8) of the same molecule?
A: 10

Q: And the “allergies, most patients of Table 3” value ([2]; patients with at least moderate allergies at pre-study)?
A: decrease in allergies
